Experimental data: article PMC12430079, “Comprehensive UPLC-MS/MS Method for Quantifying Four Key Intestinal Permeability Markers in Caco-2 Models” (Molecules, 2025)
Where two headings read alike, the source gives them in different places.

Key:
[1] = tested on: Caco-2 cells; conditions: 4 h, 37 °C
[2] = physchem; conditions: Recovery under stability condition
Method: These tests included assessing short-term stability at room temperature, long-term stability during storage at −20 °C for up to 45 days, and stability across three freeze-thaw cycles. Additionally, the stability of the analytes was tested in the media used for intestinal permeability assays, specifically HBSS with MES and HEPES buffers at pH 6.0 and 7.4.

[3] = tested on: Caco-2 cell monolayer; conditions: Caco-2 monolayer, apical pH 6.0 / basolateral pH 7.4, 4 h, without verapamil as inhibitor
[4] = in vitro; conditions: human, Caco-2

Row | recovery [2] | recovery at 36 d [2] | Apparent permeability (Papp) A→B [3] | Apparent permeability (Papp) B→A [3] | efflux ratio [4] | SMILES | Cytotoxicity (LDH release) ([1]; 50 µM) | Cytotoxicity (LDH release) ([1]; 5 µM)
1 |  |  |  |  |  | CC(C)NCC(O)COc1ccc(CC(N)=O)cc1 (stereo not drawn) [Atenolol, atenolol] | did not induce cytotoxicity | 
2 | 86.5 ± 21% | 87.7 ± 5.12% | high | high | ~1 | CC(C)NCC(O)COc1cccc2ccccc12 (stereo not drawn) [Propranolol, propranolol] |  | did not induce cytotoxicity
3 | 87.5 ± 6.3% | 86.2 ± 1.2% |  |  |  | C=C[C@H]1C[N@@]2CC[C@H]1C[C@@H]2[C@@H](O)c1ccnc2ccc(OC)cc12 [Quinidine, quinidine] |  | 
